Assay results published in US20250011687A1, “BIODEGRADABLE CHELATING AGENTS AND METHODS FOR FABRIC CARE” (The Procter & Gamble Company, priority 2023, published 2025).

Experiments:
[1] = pKa of chelating agents and catechin (Table 1); assay type: physicochemical
Text: Chelation is a type of bonding of ions and molecules to metal ions. It involves the formation or presence of two or more separate coordinate bonds between a ligand and a metal atom. Without being bound by theory, the stain removal effectiveness of a composition comprising one or more chelating agents may depend at least in part on the ability of the chelating agent(s) to bind to iron, which may be present in some stains, such as fruit or beverage stains. Several factors may impact a chelating agent's ability to bind to iron. These factors may include the pKa of the chelating agent compared to the wash pH, and the affinity of the chelating agent to bind with other metals, materials, or compositions in the wash.
Various embodiments may provide or employ a composition that comprises one or more chelating agents having a pKa that is less than the wash pH.

[2] = calcium binding efficiency, logK(β110); assay type: physicochemical; details: one metal, one ligand, no protons
Text: (§1) The binding efficiencies may be expressed as a binding constant. A binding constant (also called formation constant or stability constant) is an equilibrium constant for the formation of a complex in solution. It is a measure of the strength of the interaction between the reagents that come together to form the complex. As an example, various stains may comprise catechins as shown in Formula 13.
(§2) The chelating agent(s) according to various embodiments may, therefore, be selected to ensure a lower binding efficiency with calcium and a higher binding efficiency with iron at the wash pH.
(§3) In Table 1, the reaction between metals and ligands is described in terms of logK(β110). In this context, K, is the equilibrium constant for the reaction between ligands and metals. The higher K, the more metal is bound. This is illustrated in the following example.
(§4) β, represents the binding efficiency and receives some subscripts (βmlh) to indicate how many metals (m), ligands (l), and protons (h) respectively are involved.

[3] = iron binding efficiency, logK(β110); assay type: physicochemical; details: one metal, one ligand, no protons
Text: as §1, §2, §3, §4

[4] = Example 1 stain removal in tergotometer wash, unit dose compositions at pH 7.0/8.5/10.0; details: treatments with pH<10.0; tropolone compared to HEDP or no chelating agent
Text: Image analysis may be used to compare each stain to an unstained fabric control. Software may be used to convert images taken into standard colorimetric values and to compare these to standards based on the commonly used Macbeth Color Rendition Chart, assigning each stain a colorimetric value (Stain Level). The CIELAB color space, also referred to as L*a*b*, is a color space defined by the International Commission on Illumination (abbreviated CIE) in 1976.[a] It expresses color as three values: L* for perceptual lightness and a* and b* for the four unique colors of human vision: red, green, blue and yellow. The lightness value, L* defines black at 0 and white at 100. The a* axis is relative to the green-magenta opponent colors, with negative values toward green and positive values toward magenta. The b* axis represents the blue-yellow opponents, with negative numbers toward blue and positive toward yellow. In the following examples, various fabrics were analyzed using commercially available image analysis software for L*a*b* values. SRI values were then calculated from the L*a*b* values using the formula shown. The higher the SRI, the better the stain removal. […] One dose of detergent treatment, as detailed in Table 3 below, was added to a tergotometer and was evaluated using the Washing Method.

[5] = Example 3 stain removal in tergotometer wash, synthetic fabric; details: polyester, vs HEDP
Text: Image analysis may be used to compare each stain to an unstained fabric control. Software may be used to convert images taken into standard colorimetric values and to compare these to standards based on the commonly used Macbeth Color Rendition Chart, assigning each stain a colorimetric value (Stain Level). The CIELAB color space, also referred to as L*a*b*, is a color space defined by the International Commission on Illumination (abbreviated CIE) in 1976.[a] It expresses color as three values: L* for perceptual lightness and a* and b* for the four unique colors of human vision: red, green, blue and yellow. The lightness value, L* defines black at 0 and white at 100. The a* axis is relative to the green-magenta opponent colors, with negative values toward green and positive values toward magenta. The b* axis represents the blue-yellow opponents, with negative numbers toward blue and positive toward yellow. In the following examples, various fabrics were analyzed using commercially available image analysis software for L*a*b* values. SRI values were then calculated from the L*a*b* values using the formula shown. The higher the SRI, the better the stain removal. […]

pKa ([1]; fourth listed pKa) | pKa ([1]; second listed pKa) | pKa ([1]; third listed pKa) | Ca^2+ logK(β110) [2] | Fe (III) logK(β110) [3] | Ca^2+ logK(β110) ([2]; listed as catechins) | Fe (III) logK(β110) ([3]; listed as catechins) | SMILES | pKa ([1]; first listed pKa) | stain removal performance (in words) [4] | stain removal on synthetics fabric (in words) [5]
10.3 | 2.5 | 7.3 | 6.8 | 14.1 | – | – | CC(O)(P(=O)(O)O)P(=O)(O)O [HEDP, 1-Hydroxyethylidene-1,1-diphosphonic acid] | 1.7 | – | –
13.4 | 9.5 | 11.2 | 3.5 | 19.2 | about 3.5 | about 19.2 | Oc1cc(O)c2c(c1)OC(c1ccc(O)c(O)c1)C(O)C2 (stereo not shown) [Catechin] | – | – | –
– | – | – | 3.1 | 10.5 | – | – | O=c1cccccc1O [Tropolone, 2-Hydroxycyclohepta-2,4,6-trien-1-one] | – | improved stain removal performance | significantly improved stain removal

SMILES | pKa ([1]; fourth listed pKa) | pKa ([1]; second listed pKa) | pKa ([1]; third listed pKa) | Ca^2+ logK(β110) [2] | Fe (III) logK(β110) [3] | Ca^2+ logK(β110) ([2]; listed as catechins) | Fe (III) logK(β110) ([3]; listed as catechins) | pKa ([1]; first listed pKa) | stain removal performance (in words) [4] | stain removal on synthetics fabric (in words) [5]
CC(C)c1cccc(=O)c(O)c1 [Hinokitiol, 2-Hydroxy-6-(propan-2-yl)cyclohepta-2,4,6-trien-1-one] | – | – | – | 2.2 | 12.9 | – | – | about 7 | improved stain removal performance | significantly improved stain removal
